Entries after “also recorded” stand apart in the source; their conditions may differ. Where only a bound is given, the exact number is not on record here.

The subject of this experiment is α-tubulin deacetylation. As to the kind of experiment: acetylated α-tubulin in cells (AcTubulin cytoblot, immunofluorescence, Western blot). Conditions: for effect on tubulin deacetylation / α-tubulin acetylation in cells: A549 (also BS-C-1) cells, tubacin/JCWII114, niltubacin/JCWII153 2 μM, TSA 100 nM-4 μM, library ~2-5 μM, 18 h. It is filed as cell-based, human. The method, then:
A549 cells were seeded at a density of 4,000 cells/50 μl in DMEM+ in white tissue culture-treated 384-well plates (Nalge Nunc) using a Multidrop 384 liquid dispenser (Labsystems). Library small molecules were pinned twice (100-150 nl/pin) from ˜1 mM stock solutions (DMSO) and incubated for 18 hours. For the ITSA1+AcTubulin assay, ITSA1 (50 μM) was added four hours after pin-transfer of library molecules. Media was aspirated with a 16-channel wand. For the acetylated α-tubulin cytoblot (AcTubulin), 40 μl/well of fixation solution (3.7% formaldehyde (1:10 from 37% stock) in Tris-buffered saline (TBS, 0.15 M NaCl, 0.02 M Tris-Cl, pH 7.4) was added and plates incubated for twenty minutes at room temperature. After aspiration, 30 μl 100% methanol (−20° C.) was added and incubated for five minutes at room temperature. After aspirating and washing three times with 90 μl of antibody dilution buffer (ADB, TBS/2% bovine serum albumin, 0.1% TritonX-100) the wells were blocked for twenty minutes in ADB. After aspirating, 20 μl/well of ADB containing anti-acetylated α-tubulin antibody (mouse; 1:1000) and anti-mouse IgG horseradish peroxidase (HRP)-conjugated antibody (1:750) was added and incubated overnight (4° C.). For the anti-acetyl lysine cytoblot (AcLysine), 40 μl/well of fixation solution (95% ethanol/5% acetic acid, −20° C.) was added and plates incubated for five minutes at room temperature. Wells were aspirated, washed, and blocked in ADB as for the AcTubulin protocol. After aspirating, 20 μl/well of ADB containing anti-acetylated lysine (rabbit; 1:375) and anti-rabbit IgG-HRP conjugated antibody (1:750) was added and incubated overnight (4° C.). For the anti-acetylated histone H3 (AcHistH3) and anti-acetylated histone H4 (AcHistH4) cytoblots, cells were fixed, washed, and blocked in ADB as for the AcLysine cytoblot. After aspirating, 20 μl/well of ADB containing anti-acetylated histone H3 antibody (rabbit, 1:500) or anti-acetylated histone H4 antibody (rabbit, 1:500) was added and incubated for two hours at room temperature. Wells were aspirated and washed twice with 80 μl of ADB. After aspirating, 20 μl/well of ADB containing anti-rabbit IgG-HRP conjugated antibody (1:1000) was added and incubated for two hours (room temperature). For the AcTubulin and AcLysine assays, plates were washed three times with TBS before adding 20 μl/well of enhanced chemiluminescent (ECL) mixture. For the AcHistH3 and AcHistH4 assays, plates were washed three times with 80 μl TBS with 1% Triton X-100 and once with 80 μl TBS before adding 20 μl/well of ECL mixture. Plates were read on an Analyst plate reader (LJL Biosystems) with an integration time of 0.1 seconds.
1,3-dioxanes from single polystyrene macrobeads were prepared as 1-2 mM stock solutions in DMSO as described [Hubbert, C., Guardiola, A., Shao, R., Kawaguchi, Y., Ito, A., Nixon, A., Yoshida, M., Wang, X. F., and Yao, T. P. (2002). HDAC6 is a microtubule-associated deacetylase. Nature 417, 455-458]. Bead decoding and structure determination were as described [See for example, Hubbert, C., Guardiola, A., Shao, R., Kawaguchi, Y., Ito, A., Nixon, A., Yoshida, M., Wang, X. F., and Yao, T. P. (2002). HDAC6 is a microtubule-associated deacetylase. Nature 417, 455-458; and Piperno, G., LeDizet, M., and Chang, X. J. (1987). Microtubules containing acetylated alpha-tubulin in mammalian cells in culture. J. Cell Biol. 104, 289-302]. Small molecules (˜2-5 μM) of interest were retested using a sample from the plate of stock solutions by fluorescence microscopy and comparison to the effects of trichostatin (300 nM to 1 μM).
A549 cells were seeded at a density of 50,000/200 μl in DMEM+ on the surface of glass coverslips on top of Parafilm in a 10 cm dish and allowed to attach overnight. For detection of acetylated α-tubulin, cells were permeabilized and fixed with 100 mM K-PIPES, pH 6.8, 10 mM EGTA, 1 mM MgCl2, 0.2% triton X-100, 0.2% glutaraldehyde for fifteen minutes. […]

On to `CC(/C=C/C(=O)NO)=C\[C@@H](C)C(=O)c1ccc(N(C)C)cc1` [TSA, trichostatin A, reference compound], for which the “effect on tubulin deacetylation / α-tubulin acetylation in cells” value was “an inhibitor of both α-tubulin and histone deacetylation; also recorded: Increased α-tubulin acetylation upon TSA (4 μM) treatment (24 h)”.

In the case of `O=C(CCCCCCC(=O)Nc1ccc([C@@H]2OC(c3ccc(CO)cc3)C[C@H](CSc3nc(-c4ccccc4)c(-c4ccccc4)o3)O2)cc1)NO` (some centres unmarked) [tubacin], the “effect on tubulin deacetylation / α-tubulin acetylation in cells” value is “Increased acetylated α-tubulin induced by tubacin; also recorded: Reversibility of tubacin-induced (2 μM; 5 h) α-tubulin acetylation; also recorded: strongly increased α-tubulin acetylation levels; also recorded: potent (FIG. 41E), selective (FIG. 41F; FIG. 46A), and reversible (FIG. 46B) inhibitor of α-tubulin deacetylation; also recorded: always increased α-tubulin acetylation levels”. Besides, the “effect on tubulin deacetylation / α-tubulin acetylation in cells” value (listed as 415 N3) is given as “strongly increased α-tubulin acetylation”. Also, the “effect on tubulin deacetylation / α-tubulin acetylation in cells” value (listed as JCWII114) is “potently and selectively inhibited tubulin deacetylation”. The “concentration at which α-tubulin acetylation is increased” value (A549 cells, 4 h, data not shown) is reported as not below 125 nM.

The values are drawn from US8178579B2, “Dioxanes and uses thereof” (President and Fellows of Harvard College, priority 2001, dated 2012).
